Assay results reported in patent US10010547B2 (CASCADIAN THERAPEUTICS, INC., priority 2014, dated 2018).
Where a name gives a salt, the structure may show the parent alone. Read-outs that look alike come from different tables or passages of the source.

What was measured:
MIA PaCa-2 cells = assay: Gemcitabine Combination Cell Assay (Cell Titer Glo); type: cell-based; details: for 10xLS: approximate concentration of Chk1 inhibitor that results in a 10-fold reduction in the IC50 of gemcitabine alone; for 2xLS: approximate concentration of Chk1 inhibitor that results in a two-fold reduction in the IC50 of gemcitabine alone
How it was run: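 MIA PaCa-2 cells were treated 72 h with half-log dilutions of Chk1 inhibitor (top 3000 nM) and gemcitabine (top 100 nM), alone and in full matrix; viability by CellTiter-Glo luminescence. IC50s from four-parameter fit; Chk1 inhibitor concentrations giving two- and ten-fold lowering of gemcitabine IC50 were estimated.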

Chk-1 kinase = Chk-1 kinase (Homo sapiens (Human), UniProt O14757); assay: Chk-1 Kinase Inhibiting Activity (33P-ATP filter assay, CHKtide substrate); type: biochemical; details: against Chk-1 kinase; read-out: IC50
How it was run: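 Full-length N-terminal GST-tagged human Chk-1 from insect cells, 0.5 nM final, with 20 μM peptide substrate and 33P-ATP in HEPES pH 7.5 buffer with 1% DMSO. Reaction ran 120 minutes at room temperature; incorporated radioactivity captured on P81 filters and counted for IC50.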

[1] = Chk1 inhibitor alone, MIA PaCa-2 cells, 72 h, read-out: Chk1 IC50
[2] = Homo sapiens, Chk1 inhibitor alone, MIA PaCa-2 cells, 72 h, read-out: Chk1 IC50
[3] = Homo sapiens, MIA PaCa-2, 72 h, read-out: Chk1 IC50 (nM)

Sequence of Chk-1 kinase (O14757 whole entry): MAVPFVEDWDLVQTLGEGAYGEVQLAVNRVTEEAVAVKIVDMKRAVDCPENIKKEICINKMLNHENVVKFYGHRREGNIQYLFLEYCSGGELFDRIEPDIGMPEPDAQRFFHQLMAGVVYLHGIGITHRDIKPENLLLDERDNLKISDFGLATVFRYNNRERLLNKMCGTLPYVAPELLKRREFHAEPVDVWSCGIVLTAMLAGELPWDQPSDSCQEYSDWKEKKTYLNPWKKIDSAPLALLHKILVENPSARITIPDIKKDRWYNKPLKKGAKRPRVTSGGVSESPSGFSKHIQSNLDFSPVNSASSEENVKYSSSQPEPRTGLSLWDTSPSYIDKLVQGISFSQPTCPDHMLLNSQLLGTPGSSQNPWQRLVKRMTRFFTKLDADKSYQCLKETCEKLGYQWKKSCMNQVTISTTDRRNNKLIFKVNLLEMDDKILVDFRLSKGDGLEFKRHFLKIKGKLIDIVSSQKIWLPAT

SMILES | IC50 (MIA PaCa-2 cells; [1]) | 10xLS (MIA PaCa-2 cells; MIA PaCa-2 cells, 72 h) | 2xLS (MIA PaCa-2 cells; MIA PaCa-2 cells, 72 h) | IC50 (Chk-1 kinase) | IC50 (MIA PaCa-2 cells; [2]) | IC50 (MIA PaCa-2 cells; [3])
CCN1CCC(OCc2ccc(-c3cc(Nc4cnc(C#N)cn4)n[nH]3)c(OC)c2)CC1 [Example 114, 5-[[5-[4-[(1-ethyl-4-piperidyl)oxymethyl]-2-methoxy-phenyl]-1H-pyrazol-3-yl]amino]pyrazine-2-carbonitrile] | 469 nM | <300 nM | 3 nM | 0.2 nM |  | 
COc1cc(COC2CCN(C(C)C)CC2)ccc1-c1cc(Nc2cnc(C#N)cn2)n[nH]1 [Example 115, 5-[[5-[4-[(1-isopropyl-4-piperidyl)oxymethyl]-2-methoxy-phenyl]-1H-pyrazol-3-yl]amino]pyrazine-2-carbonitrile] | 515 nM | <300 nM | 3 nM | 0.24 nM |  | 
COc1cc(N2CCNCC2)cc(F)c1-c1cc(Nc2cnc(C#N)cn2)n[nH]1 [Example 116, 5-[[5-(2-fluoro-6-methoxy-4-piperazin-1-yl-phenyl)-1H-pyrazol-3-yl]amino]pyrazine-2-carbonitrile] |  | 100 nM | 3 nM | 0.077 nM | 209 nM | 
COc1cc([C@@H]2CN(C)CCO2)ccc1-c1cc(Nc2cnc(C#N)cn2)n[nH]1 [Example 117, 5-[[5-[2-Methoxy-4-[(2R)-4-methylmorpholin-2-yl]phenyl]-1H-pyrazol-3-yl]amino]pyrazine-2-carbonitrile hydrochloride] |  | 1000 nM | 10 nM | 0.027 nM |  | 1890 nM
CCN1CCO[C@H](c2ccc(-c3cc(Nc4cnc(C#N)cn4)n[nH]3)c(OC)c2)C1 [Example 118, 5-[[5-[2-methoxy-4-[(2R)-4-ethylmorpholin-2-yl]phenyl]-1H-pyrazol-3-yl]amino]pyrazine-2-carbonitrile] |  | 300 nM | 3 nM | 0.022 nM | 1200 nM | 
COc1cc(N2CCNCC2)cc(OC)c1-c1cc(Nc2cnc(C#N)cn2)n[nH]1 [Example 121, 5-[[5-(2,6-dimethoxy-4-piperazin-1-yl-phenyl)-1H-pyrazol-3-yl]amino]pyrazine-2-carbonitrile] |  | <100 nM | 3 nM | 0.15 nM | 177 nM | 
COc1cc(N2CCN(C)CC2)cc(OC)c1-c1cc(Nc2cnc(C#N)cn2)n[nH]1 [Example 122, 5-[[5-[2,6-dimethoxy-4-(4-methylpiperazin-1-yl)phenyl]-1H-pyrazol-3-yl]amino]pyrazine-2-carbonitrile] |  | <100 nM | 3 nM | 0.14 nM | 136 nM | 
COc1cc(CN2CC[C@@H](F)C2)ccc1-c1cc(Nc2cnc(C#N)cn2)n[nH]1 [Example 123, 5-[[5-[4-[[(3R)-3-fluoropyrrolidin-1-yl]methyl]-2-methoxy-phenyl]-1H-pyrazol-3-yl]amino]pyrazine-2-carbonitrile hydrochloride] |  | <300 nM | 3 nM | 0.16 nM |  | 440 nM
CCN1CCC[C@@H]1COc1ccc(-c2cc(Nc3cnc(C#N)cn3)n[nH]2)c(OC)c1 [Example 126, 5-[[5-[4-[[(2R)-1-ethylpyrrolidin-2-yl]methoxy]-2-methoxy-phenyl]-1H-pyrazol-3-yl]amino]pyrazine-2-carbonitrile] |  | <100 nM | 3 nM | 0.056 nM | 210 nM | 
COc1cc(OC[C@H]2CCCN2C(C)C)ccc1-c1cc(Nc2cnc(C#N)cn2)n[nH]1 [Example 127, 5-[[5-[4-[[(2R)-1-isopropylpyrrolidin-2-yl]methoxy]-2-methoxy-phenyl]-1H-pyrazol-3-yl]amino]pyrazine-2-carbonitrile] |  | <100 nM | <3 nM | 0.044 nM | 169 nM | 
CCN1CCC[C@H]1COc1ccc(-c2cc(Nc3cnc(C#N)cn3)n[nH]2)c(OC)c1 [Example 128, 5-[[5-[4-[[(2S)-1-ethylpyrrolidin-2-yl]methoxy]-2-methoxy-phenyl]-1H-pyrazol-3-yl]amino]pyrazine-2-carbonitrile] |  | <100 nM | <3 nM | 0.023 nM | 158 nM | 
COc1cc(OC[C@@H]2CCCN2C(C)C)ccc1-c1cc(Nc2cnc(C#N)cn2)n[nH]1 [Example 129, 5-[[5-[4-[[(2S)— 1-isopropylpyrrolidin-2-yl]methoxy]-2-methoxy-phenyl]-1H-pyrazol-3-yl]amino]pyrazine-2-carbonitrile] |  | <100 nM | <3 nM | 0.046 nM | 278 nM | 
COc1cc(CNCC2CC2)ccc1-c1cc(Nc2cnc(C#N)cn2)n[nH]1 [Example 130, 5-[[5-[4-[(cyclopropylmethylamino)methyl]-2-methoxy-phenyl]-1H-pyrazol-3-yl]amino]pyrazine-2-carbonitrile] |  | <100 nM | 3 nM | 0.025 nM | 142 nM | 
